Assay results from patent publication US20070026478A1, “Hemiasterlin affinity probes and their uses” (WYETH, priority 2002, published 2007).
Where “and” joins values, the source holds several entries; their conditions need not be identical. Equal values may be shown once. Read-outs that look alike come from different tables or passages of the source. Marks after values point to notes of the source that are not given here.

Columns and labels:
[1] = biological target: microtubule associated protein (MAP)-rich bovine brain tubulin (bovine) (UniProt P81947); assay: 100 µM HTI-286 against 0.25 µM [3H]-Probe 1 photolabeling of tubulin, 37° C.
[2] = biological target: α-tubulin of bovine brain tubulin (bovine) (UniProt P81947); assay: 1 mM HTI-286 against 2.5 µM [3H]-Probe 1 photolabeling, fluorography
[3] = biological target: microtubule associated protein (MAP)-rich bovine brain tubulin (bovine) (UniProt P81947)
[4] = biological target: microtubule associated protein (MAP)-rich bovine brain tubulin (bovine) (UniProt P81947); assay: 100 µM HTI-286 against 0.25 µM [3H]-Probe 2 photolabeling of tubulin, room temperature
[5] = biological target: microtubule associated protein (MAP)-rich bovine brain tubulin (bovine) (UniProt P81947); assay: reversible binding to bovine brain tubulin (range given in Table 1)
[6] = biological target: microtubule associated protein (MAP)-rich bovine brain tubulin (bovine) (UniProt P81947); assay: 100 µM HTI-286 against 0.25 µM [3H]-Probe 1 photolabeling of tubulin, room temperature
[7] = biological target: T1, bovine MAP-rich tubulin (Bos taurus, UniProt P81947+Q6B856); assay: Tubulin polymerization assay in a cell-free system; assay type: biochemical; conditions: 0.3 μM compound
T1 construct: MAP-rich bovine brain tubulin (99% purity), Hela cell tubulin (90% purity); purchased Cytoskeleton (Denver, Colo.); host or cells: bovine brain
Protocol: In vitro tubulin polymerization assays were performed according to procedures that have been described elsewhere (Loganzo et al., Cancer Res. 2003, 63:1838-1845). Briefly, bovine MAP-rich tubulin (final concentration 1.5 mg/mL) was dissolved in cold PEM buffer containing 1 mM GTP (GPEM) and centrifuged at 12,000×g for 10 minutes at 4° C. The tubulin solution (100 μL/well) was added rapidly to wells of a low-volume, 96-well plate already containing duplicate aliquots (10 μL) of test compounds in GPEM. Final compound concentrations were 0.3 μM. Control wells contained the same final concentration of DMSO (0.3%). After initiation of the reaction, absorbance at 340 nm was measured every minute for 60 minutes at 24° C. using a SpectraMax Plus plate reader (Molecular Devices, Sunnyvale, Calif.). An increase in absorbance over time indicated an increase in turbidity resulting from tubulin polymerization.

[8] = biological target: T2, tubulin (Bos taurus, UniProt P81947+Q6B856); assay: Competition of [3H]-Probe 2 photolabeling of tubulin; assay type: binding, bovine
T2 construct: MAP-rich bovine brain tubulin (99% purity), Hela cell tubulin (90% purity); purchased Cytoskeleton (Denver, Colo.); host or cells: bovine brain
Protocol: (§1) Alternatively, a cytosolic preparation of KB-3-1 cell lysates (50 μg) or KB-3-1 cells (40,000 cells) were used in the place of purified tubulin above. The supernatant of mechanically disrupted cells centrifuged at 100,000×g was used as a cytosolic preparation. K-3-1 cells were prepared by growing KB-3-1 cells in a 96-well plate and rinsing them with serum free medium.
Competition binding experiments were performed as described in Section 7.1.5. […] Samples were then irradiated for 2 hours at 4° C. and evaluated by SDS-PAGE and fluorography.

[9] = biological target: T3, bovine brain tubulin (Bos taurus, UniProt P81947+Q6B856); assay: Reversible binding affinity assay (tubulin fluorescence)
T3 construct: MAP-rich bovine brain tubulin (99% purity), Hela cell tubulin (90% purity); purchased Cytoskeleton (Denver, Colo.); host or cells: bovine brain
Protocol: The affinity of both HTI-286 and of non-radiolabled Probe 1 and Probe 2, to bovine brain tubulin was determined by previously published methods (Krishnamurthy et al., Biochem., submitted). Briefly, 5 mg/mL […] tubulin prepared in PEM buffer was pre-incubated with buffer or varying concentrations of test agents in individual quartz cuvettes. The intrinsic tryptophan fluorescence of tubulin (excitation at 560 nm and maximal emission at 580 nm) was measured after pre-incubation for 90 minutes. The change in fluorescence intensity at 580 nm in the presence of compound was fitted to a quadratic equation to obtain apparent dissociation constants (KD) of the test agents.

[10] = tested on: KB cells; assay: Cell proliferation assay in tissue culture (SRB); assay type: cell-based
Protocol: Cell proliferation studies were performed according to procedures described by Loganzo et al. (Cancer Res. 2003, 63:1838-1845). Briefly, KB cells were plated in 96-well plates in 100 μL media at densities pre-determined to produce 60-90% confluence at the time of analysis. Compounds, which were serially diluted into media as 2× stocks, were added to cells in duplicate. After 72 hours of incubation, cell survival was assayed by the SRB assay as described (Rabindran et al., C. Cancer Res. 1998, 58:5850-5858). IC50 values (i.e. the concentration of drug needed to inhibit cell growth by 50%) were used to evaluate drug potency.

[11] = biological target: T4, α-tubulin (Bos taurus, UniProt P81947+Q6B856); assay: Subtilisin digestion of tubulin after incubation with various compounds; assay type: biochemical, bovine; conditions: 50 μM drug, subtilisin up to 60 min at room temperature
T4 construct: MAP-rich bovine brain tubulin (99% purity), Hela cell tubulin (90% purity); purchased Cytoskeleton (Denver, Colo.); host or cells: bovine brain
Protocol: Tubulin (5 μg) was incubated with 50 μM drug at room temperature for 25 minutes and then digested under native conditions with subtilisin (0.05 μg) for 0, 5, 10, 15, 30 and 60 min at room temperature. Enzymatic digestion was stopped with 1 mM PMSF and samples were resolved by SDS-PAGE under conditions that allowed separation of α- and β-tubulin subunits. Gels were then fixed and stained with Coomassie blue.

[12] = biological target: T2, tubulin; assay: Separation of polymerized and free tubulin by centrifugation; assay type: biochemical, bovine; conditions: 50 μM drug, centrifugation at 10,000 g and 100,000 g
Protocol: Tubulin (5 μg) was incubated with 50 μM drug at room temperature for 25 minutes and then centrifuged at either 10,000 g for 15 minutes in a tabletop microfuge or at 100,000 g for 15 minutes in an airfuge. The supernatant was carefully removed to a fresh tube to obtain free tubulin and the pellet was solubilized in SDS-PAGE sample buffer.

[13] = biological target: T3, bovine brain tubulin; assay: Competition of [3H]-Probe 1 photolabeling of tubulin; assay type: binding; conditions: for Probe 1 photolabeling of tubulin (% of no-competitor control): control (no competitor) = 100; for IC50: read-out: IC50 for inhibition of Probe 1 photolabeling of tubulin
Protocol: as §1
If whole cells were used, Laemmli sample buffer was then added to lyse the cells.
Low grade SDS (Sigma, catalog No. L5750) was used in the running buffer, when needed, to allow separation of α and β-tubulin subunits. Gels were fixed, stained with Coomassie blue from BioRad (Hercules, Calif.) to ensure equal loading of protein, and sliced. […] Alternatively, gels were incubated with EN^3HANCE according to the manufacturer's instructions (Life Sciences Products, Inc.), washed, and dried prior to exposure of the gel to Biomax MX film from Kodak (Rochester, N.Y.) for fluorography.
After incubation for 30 minutes at 37° C., samples were irradiated with 360 nm UV light for 30 minutes and separated by SDS-PAGE. Gels were exposed to film using fluorographic techniques.
In particular, photolabeling experiments were performed as described in section 7.1.5 above, at both room temperature and at 37° C.

[14] = biological target: microtubule associated protein (MAP)-rich bovine brain tubulin (bovine) (UniProt P81947); assay: 100 µM non-radiolabeled Probe 1 against 0.25 µM [3H]-Probe 1 photolabeling of tubulin, room temperature
[15] = biological target: microtubule associated protein (MAP)-rich bovine brain tubulin (bovine) (UniProt P81947); assay: 100 µM non-radiolabeled Probe 1 against [3H]-Probe 1, tubulin: radiolabeled probe 2.5:0.25
[16] = biological target: microtubule associated protein (MAP)-rich bovine brain tubulin (bovine) (UniProt P81947); assay: 100 µM non-radiolabeled Probe 1 against [3H]-Probe 1, tubulin: radiolabeled probe 2.5:2.5
[17] = biological target: microtubule associated protein (MAP)-rich bovine brain tubulin (bovine) (UniProt P81947); assay: 100 µM non-radiolabeled Probe 1 against 0.25 µM [3H]-Probe 1 photolabeling of tubulin, 37° C.
[18] = biological target: microtubule associated protein (MAP)-rich bovine brain tubulin (bovine) (UniProt P81947); assay: change of fluorescence of rhodamine-labeled tubulin
[19] = biological target: microtubule associated protein (MAP)-rich bovine brain tubulin (bovine) (UniProt P81947); assay: 100 µM non-radioactive Probe 2 against 0.25 µM [3H]-Probe 2 photolabeling of tubulin, room temperature
[20] = 100 μM competitor, 2.5 μM tubulin, 0.25 μM [3H]-Probe 2, room temperature
[21] = Room Temp., 2.5 μM tubulin, 0.25 μM radiolabeled Probe 1, 100 μM competitor
[22] = room temperature, 400-fold molar excess (100 μM) competitor, 2.5 μM tubulin, 0.25 μM radiolabeled Probe 1
[23] = room temperature, 2.5 μM tubulin, 0.25 μM radiolabeled Probe 1

| tubulin polymerization (% inhibition) [3] | Kd [5] | Probe 1 photolabeling of tubulin (% of no-competitor control) ([13]; 37° C., 100 μM competitor) | Probe 1 photolabeling of tubulin (% of no-competitor control) [13, 21] | reduction of Probe 1 photolabeling of tubulin [13, 22] | Compound | inhibition of Probe 2 labeling of tubulin [8, 20] | protection of α-tubulin from subtilisin cleavage [11] | protein recovered in pellet fractions (tubulin aggregation) [12] | other results |
| --- | --- | --- | --- | --- | --- | --- | --- | --- | --- |
| 87.5% | 0.4 µM and 0.8 µM | – | – | – | HTI-286 (N,β,β-trimethyl-L-phenylalanyl-N1-[(1S,2E)-3-carboxy-1-isopropylbut-2-enyl]-N1,3-dimethyl-L-valinamide trifluoroacetate) (peptide) | – | – | – | Inhibition (%) (labeling against control = 100) [1]: 47%; percent inhibition of Probe 1 incorporation [2]: > 50%; percent inhibition of Probe 2 labeling (so in the source) [4]: 45%; Inhibition (%) (labeling against control = 100) [6]: 27% |
| – | – | – | – | – | CN[C@H](C(=O)N[C@H](C(=O)N(C)[C@H](/C=C(\C)C(=O)O)C(C)C)C(C)(C)c1ccc(C(=O)c2ccccc2)cc1)C(C)(C)c1ccccc1 [Probe 2, N,β,β-trimethyl-L-phenylalanyl-4-benzoyl-N-[(1S,2E)-3-carboxy-1-isopropyl-2-butenyl]-N,β,β-trimethyl-L-phenylalaninamide] | 12% | – | – | inhibition at 0.3 µM [7]: 69%; Kd ([9]; Table 1, binding to bovine brain tubulin, read-out: KD): 1.1 to 6 µM; KD relative to KD of HTI-286 ([9]; fluorescence method): approximately 6 fold; Kd ([9]; rhodamine-labeled tubulin, 90 minutes pre-incubation, read-out: apparent binding constant (KD), fluorescence method): 3.6 µM; IC50 ([10]; 72 hours): 0.0224 ± 0.0007 µM; IC50 ([10]; Homo sapiens, KB, 72 h): 0.022 µM |
| – | – | 173 ± 7% | 83 ± 41% | almost no effect | CC(=O)O[C@H]1C(=O)[C@@]2(C)[C@H]([C@H](OC(=O)c3ccccc3)[C@]3(O)C[C@H](OC(=O)[C@H](O)[C@@H](NC(=O)c4ccccc4)c4ccccc4)C(C)=C1C3(C)C)[C@]1(OC(C)=O)CO[C@@H]1C[C@@H]2O [Paclitaxel] | – | unable to cleave α-tubulin even after 60 minutes | significant amount of protein was recovered | Probe 2 photolabeling, % of the control value [8, 20]: 113%; enhancement of Probe 2 photolabeling ([8]; higher concentrations of competitor): this effect was lost; enhancement of Probe 1 photolabeling of tubulin ([13]; 37° C.): 73% |
| 88% | 0.8 µM | – | – | – | Probe 1 (4-benzoyl-N,β,β-trimethyl-L-phenylalanyl-N1-[(1S,2E)-3-carboxy-1-isopropylbut-2-enyl]-N1,3-dimethyl-L-valinamide) (peptide) | – | – | – | Inhibition (%) (labeling against control = 100) [14]: 12%; percent inhibition of tubulin labeling [15]: 93%; percent inhibition of tubulin labeling [16]: 82%; Inhibition (%) (labeling against control = 100) [17]: 24% |
| 69% | 1.1 µM and 6 µM | – | – | – | Probe 2 (N,β,β-trimethyl-L-phenylalanyl-4-benzoyl-N-[(1S,2E)-3-carboxy-1-isopropyl-2-butenyl]-N,β,β-trimethyl-L-phenylalaninamide) (peptide) | – | – | – | fold KD against HTI-286 [18]: 6 fold; percent inhibition of Probe 2 labeling (so in the source) [19]: 12% |
| – | – | 52 ± 0.5% | 28 ± 1% | approximately 72% | CC[C@]1(O)C[C@@H]2CN(CCc3c([nH]c4ccccc34)[C@@](C(=O)OC)(c3cc4c(cc3OC)N(C)[C@H]3[C@@](O)(C(=O)OC)[C@H](OC(C)=O)[C@]5(CC)C=CCN6CC[C@]43[C@@H]65)C2)C1 [Vinblastine] | 64% | unable to cleave α-tubulin even after 60 minutes | significant amount of protein was recovered | reduction of Probe 1 photolabeling of tubulin ([13]; 37° C.): about 50%; IC50 [13, 23]: 22 µM |
| – | – | – | – | – | Nc1nc2c(ncn2[C@@H]2O[C@H](COP(=O)(O)OP(=O)(O)OP(=O)(O)O)[C@@H](O)[C@H]2O)c(=O)[nH]1 [GTP, guanosine-5′-triphosphate] | – | – | – | effect on incorporation of Probe 1 into tubulin ([13]; pre-incubation with between 0 and 100 μM): did not significantly inhibit incorporation |

| Compound | tubulin polymerization (% inhibition) [3] | Kd [5] | Probe 1 photolabeling of tubulin (% of no-competitor control) ([13]; 37° C., 100 μM competitor) | Probe 1 photolabeling of tubulin (% of no-competitor control) [13, 21] | reduction of Probe 1 photolabeling of tubulin [13, 22] | inhibition of Probe 2 labeling of tubulin [8, 20] | protection of α-tubulin from subtilisin cleavage [11] | protein recovered in pellet fractions (tubulin aggregation) [12] | other results |
| --- | --- | --- | --- | --- | --- | --- | --- | --- | --- |
| CC[C@H](C)[C@@H]([C@@H](CC(=O)N1CCC[C@H]1[C@H](OC)[C@@H](C)C(=O)N[C@@H](Cc1ccccc1)c1nccs1)OC)N(C)C(=O)[C@@H](NC(=O)[C@H](C(C)C)N(C)C)C(C)C [Dolastatin-10] | – | – | 26^† % | 13 ± 3% | approximately 87% | 27% | unable to cleave α-tubulin even after 60 minutes | significant amount of protein was recovered | reduction of Probe 1 photolabeling of tubulin ([13]; 37° C.): about 75%; IC50 [13, 23]: 5 µM |
